# Experimental data taken from ChEMBL document CHEMBL1127363, “Structure-activity relationship studies of N-sulfonyl analogs of cocaine: role of ionic interaction in cocaine binding” (J Med Chem, 1994).
# What was measured:
# [1] = species on record: Rattus norvegicus; assay: Compound was tested to inhibit high affinity uptake of [3H]- -dopamine into striatal nerve endings (synaptosomes); assay type: functional, Brain
# [2] = target: T1, Sodium-dependent dopamine transporter (Rattus norvegicus, UniProt P23977); assay: Binding affinity was tested by measuring its ability to displace [3H]-mazindol binding against dopamine transporter (DAT) of rat striatal membranes
# T1 sequence (P23977 whole entry): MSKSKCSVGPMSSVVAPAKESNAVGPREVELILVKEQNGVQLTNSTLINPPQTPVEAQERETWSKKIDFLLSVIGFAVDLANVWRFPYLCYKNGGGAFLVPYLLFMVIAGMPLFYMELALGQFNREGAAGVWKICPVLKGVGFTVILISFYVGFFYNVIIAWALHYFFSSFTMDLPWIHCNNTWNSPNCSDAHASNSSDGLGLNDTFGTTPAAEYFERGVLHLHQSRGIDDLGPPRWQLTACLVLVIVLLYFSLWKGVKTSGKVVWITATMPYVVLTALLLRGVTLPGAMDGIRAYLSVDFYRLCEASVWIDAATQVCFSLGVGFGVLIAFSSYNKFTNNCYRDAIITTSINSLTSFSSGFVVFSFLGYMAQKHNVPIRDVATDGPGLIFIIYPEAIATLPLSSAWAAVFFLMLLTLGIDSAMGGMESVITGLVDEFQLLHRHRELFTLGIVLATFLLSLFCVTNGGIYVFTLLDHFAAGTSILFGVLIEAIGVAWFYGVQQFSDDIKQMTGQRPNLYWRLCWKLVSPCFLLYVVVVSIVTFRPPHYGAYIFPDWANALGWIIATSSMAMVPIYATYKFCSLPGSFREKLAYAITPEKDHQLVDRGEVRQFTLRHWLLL
# [3] = target: Sodium-dependent dopamine transporter (Rattus norvegicus) (UniProt P23977); assay: Inhibition of [3H]mazindol binding to dopamine transporter (DAT) of rat striatal membranes at 100 uM; assay type: cell membranes; settings: Membrane
# Sodium-dependent dopamine transporter (Rattus norvegicus), sequence (P23977 whole entry): as above
# [4] = species on record: Rattus norvegicus; assay: Inhibition of high affinity uptake of [3H]- -dopamine into striatal nerve endings (synaptosomes) at 300 uM; assay type: functional; settings: Brain
# [5] = target: T1, Sodium-dependent dopamine transporter; assay: Binding affinity was tested by measuring its ability to displace [3H]mazindol binding against dopamine transporter (DAT) of rat striatal membranes
# [6] = species on record: Rattus norvegicus; assay: Compound was tested to inhibit high affinity uptake of [3H]- -Dopamine into striatal nerve endings (synaptosomes); assay type: functional, Brain
# [7] = species on record: Rattus norvegicus; assay: Compound was tested to inhibit high affinity uptake of [3H]dopamine into striatal nerve endings (synaptosomes); assay type: functional, Brain
Structure (SMILES),Ki [1],Ki [2],Ki [5],also measured
COC(=O)[C@@H]1C2CCC(C[C@@H]1OC(=O)c1ccccc1)N2S(=O)(=O)c1ccccc1 (some centres undefined),61 µM,20.8 µM,,
COC(=O)[C@@H]1C2CCC(C[C@@H]1OC(=O)c1ccccc1)N2S(=O)(=O)c1ccc([N+](=O)[O-])cc1 (some centres undefined),18.8 µM,5.72 µM,,inhibition [3]: 80%; inhibition [4]: 72%
COC(=O)[C@@H]1C2CCC(C[C@@H]1OC(=O)c1ccccc1)N2S(=O)(=O)c1ccc(OC)cc1 (some centres undefined),16.4 µM,6.82 µM,,
COC(=O)[C@@H]1C2CC[C@@H](C[C@@H]1OC(=O)c1ccccc1)N2S(=O)(=O)N=C=O,,,0.12 µM,Ki [6]: 0.16 µM
COC(=O)[C@@H]1C2CCC(C[C@@H]1OC(=O)c1ccccc1)N2S(=O)(=O)C(F)(F)F (some centres undefined),0.76 µM,0.33 µM,,
COC(=O)[C@@H]1C2CCC(C[C@@H]1OC(=O)c1ccccc1)N2S(C)(=O)=O (some centres undefined),,,1.29 µM,Ki [7]: 1.97 µM
